Reference: article PMC12051620, “Molecular basis underlying the specificity of an antagonist AA92593 for mammalian melanopsins” (The Journal of Biological Chemistry, 2025)

Key:
Test in all cases: GsX GloSensor assay with Gsα/q11
Format in all cases: cell-based, Branchiostoma lanceolatum
Conditions in all cases: 16.7 μM AA92593, COS-1 cells
[1] = test system: lanceolatum melanopsin A269^6.52S mutant
Excerpt: (§1) We assessed the effect of the antagonist on the mutants using the GsX GloSensor assay with Gsα/q11. […] Furthermore, the double substitution F189^ECL2W/I207^5.42F further increased the susceptibility of the lanceolatum melanopsin to the antagonist by ∼88% (Fig. 7, G, H, and I). The AA92593-induced inhibition of the double mutant F189^ECL2W/I207^5.42F was as efficient as that of human melanopsin (Fig. 7I). […] Taken together, the introduction of Trp-189^ECL2 and Phe-207^5.42 rendered lanceolatum melanopsin highly sensitive to the antagonist (Fig. 7, G, H, and I).
(§2) For GloSensor assay, opsins, GloSensor assay sensor (coded by pGlo-22F), and NanoBiT-tagged G proteins were transiently expressed in COS-1 cells (kindly provided from Dr David Farrens, Oregon Health and Science University) using PEI as described previously ([24], [52]). For the GsX GloSensor assay ([12], [13]), each well of a 96-well assay plate (Corning) was transfected with 50 ng opsin plasmid, 16.7 ng G protein plasmid, 50 ng pGlo-22F plasmid (Promega), and 500 ng PEI in 25 μl Opti-mem and 75 μl Dulbecco's modified Eagle's medium (D-MEM). For NanoBiT G protein dissociation assay, each well of a 96-well assay plate was transfected with 50 ng opsin plasmid, 5 ng Lg-BiT inserted Gqα (Gqα-LgBiT) plasmid, 25 ng Gβ1 plasmid, 25 ng Sm-BiT fused Gγ2 plasmid, 5 ng RIC8A plasmid, and 500 ng PEI in 25 μl Opti-mem and 75 μl D-MEM. For GFP-fluorescence microscopy, a 35-mm cell culture dish (IWAKI) was transfected with 2 μg melanopsin-GFP plasmid and 8 μg PEI in 400 μl Opti-mem and 1.2 ml D-MEM. […]
(§3) The transfected COS-1 cells were incubated at 37 °C, 5% CO2 for 2 days, and the medium was aspirated and exchanged with 50 μl of HBSS (145 mM NaCl, 10 mM D-glucose, 5 mM KCl, 1 mM MgCl2, 1.7 mM CaCl2, 1.5 mM NaHCO3, 10 mM Hepes, pH 7.4), containing 33.3, 20, 10, 2, 0.2, 0.02, 0.002, or 0 μM AA92593, 0.5% dimetyl sulfoxide (DMSO), and 4% (vol/vol) GloSensor cAMP reagent stock solution. […] Then, the cells were incubated at room temperature for 1 h, and luminescence changes were monitored. After incubation of the cells with AA92593, luminescence measurement was interrupted, the plate was ejected, and the cells were added with 50 μl of HBSS containing 0.2 μM 9-cis-retinal. […] Luminescence was measured using GM-2000 or GM-3510 microplate reader (Promega). Luminescence level of each well was measured every 30 s with integration time of 0.6 to 0.9 s. To illuminate opsins, luminescence measurement was interrupted, the plate was ejected, and the plate was illuminated by white light with CN-160 LED video light (light intensity, ∼9 mW/cm^2) (NEEWER). […] After illumination, luminescence measurement was resumed. The measured luminescence levels were normalized to the level at the starting point (time = 0 min). […]

[2] = test system: lanceolatum melanopsin I207^5.42L mutant
Excerpt: as §1, §2, §3

[3] = test system: lanceolatum melanopsin F189^ECL2W mutant
Excerpt: as §1, §2, §3

[4] = test system: lanceolatum melanopsin I207^5.42F mutant
Excerpt: as §1, §2, §3

COc1ccc(S(=O)(=O)N2CCCCC2)cc1C [AA92593]
change in sensitivity to AA92593 vs WT [1]: little changes
change in sensitivity to AA92593 vs WT [2]: little changes
increase in sensitivity to AA92593 vs WT [3]: ~21%
increase in sensitivity to AA92593 vs WT [4]: ~42%
